Columns and labels:
[1] = test system: Lactobacillus crispatus CIP 103604; assay: In vitro UV model: bacterial survival after UV irradiation (96-well, MPN method); assay type: cell-based
Method: (§1) Accordingly, the inventors developed a targeted in vitro liquid model in 96-well microplate format to screen for UV protective actives (“UV filters”) on bacterial survival upon UV irradiation. The effects of selected UV irradiation conditions tested on microbial population of Lactobacillus crispatus (L. crispatus) and Staphylococcus epidermidis (S. epidermidis) in the presence of UV filter samples and combinations thereof were evaluated with the evolution of the residual microbial population after 4 h. The inhibition of bacterial growth, as consequence of UV irradiation, was compared to that of the same strain without UV irradiation and was expressed in percentage of survival (%). The microbial strains used in this study are listed below and their cultures are reconstituted according to the direction of the supplier collection center of the reference strain, CRBIP (Institut Pasteur Collection, France) or ATCC (American Type Culture Collection, USA): • Lactobacillus crispatus CIP 103604 • Staphylococcus epidermidis ATCC 12228 The 96-well plate was filled with the culture media (140 μL) and a calibrated inoculum (20 μL) of each bacterial strain was added to reach […] colony forming units per milliliter (cfu/mL) final concentration. After contamination, the sample was added (40 μL; 20% v/v) in triplicate and was thoroughly mixed to ensure a homogeneous distribution. Then, the plate was submitted to UV stress through an UV irradiator system (BioSun, Vilber Lourmat, France) according to the UV doses presented Table 1 below. The specific UV dose selected was between 10 and 49% survival of the microbial population. For the microbial population counts, aliquots of the contaminated samples of L. crispatus and S. epidermidis were serially diluted (4 decimal dilutions followed by 8 binary dilutions, in triplicate) in culture media on 96-wells plates with triphenyltetrazolium. Then, the plates were incubated at 37° C.±2,5° C. during 48 h taking into account the respiratory type of each strain. […] The use level of the single UV filter and combinations in the test formulations was calculated to obtain a predicted in vitro SPF value of 5.75+/−0.15 and 23.45+/−0.65, respectively (Table 2). […] The relative percentage of protection (%) was calculated from the difference between the survival percentages of samples and vehicle control (with UV irradiation) and divided to the survival percentage of the vehicle control. Consequently, the survival of each microbial population and the relative protection by the UV filter(s) were calculated and are summarized in the Table 2.

[2] = test system: Staphylococcus epidermidis ATCC 12228; assay: as above; assay type: cell-based
Method: as §1

SMILES	survival rate of L. crispatus after UV radiation (in words) ([1]; summary statement)	protection of S. epidermidis from UV radiation (in words) ([2]; summary statement)	L. crispatus relative protection by the UV filter(s) vs. vehicle control ([1]; 50 SED (500 mJ/cm^2 UVA+UVB), sample at 20% v/v, after 4 h)	S. epidermidis relative protection by the UV filter(s) vs. vehicle control ([2]; 15 SED (150 mJ/cm^2 UVA+UVB), sample at 20% v/v, after 4 h)
CCCCC(CC)COC(=O)C(C#N)=C(c1ccccc1)c1ccccc1 (stereo not shown) [Inv. 1, Octocrylene]	particularly good survival rate	efficiently protecting	–	–
CCCCC(CC)COC(=O)c1ccc(Nc2nc(Nc3ccc(C(=O)OCC(CC)CCCC)cc3)nc(Nc3ccc(C(=O)OCC(CC)CCCC)cc3)n2)cc1 (stereo not shown) [Inv. 3, Ethylhexyl Triazone]	–	–	(+100) %	(+59) %

Source: patent US20250367098A1, “SUNSCREEN COMPOSITION FOR LACTOBACILLUS AND S. EPIDERMIDIS PROTECTION ON SKIN” (DSM IP Assets B.V., priority 2022, published 2025)
